One experiment has as its target T1, mTOR (Homo sapiens, UniProt P42345).
T1 construct: phosphorylation of the Akt protein at Ser473 (AKT lies downstream of PI3Kα in the signal transduction pathway) in the MDA-MB-468 cells; endogenous in cells; host or cells: MDA-MB-468 cells (ATCC HTB 132)
Nature of the experiment: mTOR cellular potency assay (phospho-AKT Ser473 in MDA-MB-468 cells). It counts as cell-based. As to conditions: MDA-MB-468 cells, 2 h, phospho-AKT Ser473; Table 2; read-out: Assay d) mTOR Cell IC50. The text has this:
The following assays were used to measure the effects of the compounds of the present invention: a) ATM cellular potency assay; b) PI3K cellular potency assay; c) mTOR cellular potency assay; d) ATR cellular potency assay. During the description of the assays, generally: • i. The following abbreviations have been used: 4NQO=4-Nitroquinoline N-oxide; Ab=Antibody; BSA=Bovine Serum Albumin; CO2=Carbon Dioxide; DMEM=Dulbecco's Modified Eagle Medium; DMSO=Dimethyl Sulphoxide; EDTA=Ethylenediaminetetraacetic Acid; EGTA=Ethylene Glycol Tetraacetic Acid; ELISA=Enzyme-linked Immunosorbent Assay; EMEM=Eagle's Minimal Essential Medium; FBS=Foetal Bovine Serum; h=H(s); HRP=Horseradish Peroxidase; i.p.=intraperitoneal; PBS=Phosphate buffered saline; PBST=Phosphate buffered saline/Tween; TRIS=Tris(Hydroxymethyl)aminomethane; MTS reagent: [3-(4,5-dimethylthiazol-2-yl)-5-(3-carboxymethoxyphenyl)-2-(4-sulfophenyl)-2H-tetrazolium, inner salt, and an electron coupling reagent (phenazine methosulfate) PMS; s.c. sub-cutaneously. • ii. IC50 values were calculated using a smart fitting model in Genedata.
This assay was used to measure mTOR inhibition in cells. The aim of the phospho-AKT cell based mechanism of action assay using the Acumen Explorer is to identify inhibitors of either PI3Kα or mTOR-Rictor (Rapamycin insensitive companion of mTOR). This is measured by any decrease in the phosphorylation of the Akt protein at Ser473 (AKT lies downstream of PI3Kα in the signal transduction pathway) in the MDA-MB-468 cells following treatment with compound.
MDA-MB-468 cells (human breast adenocarcinoma #ATCC HTB 132) were seeded at 1500 cells/well in 40 μl of DMEM containing 10% FBS and 1% glutamine into Greiner 384 well black flat-bottomed plates. Cell plates were incubated for 18 h in a 37° C. incubator before dosing with compounds of Formula (I) in 100% DMSO using acoustic dispensing. Compounds were dosed in a 12 point concentration range into a randomised plate map. Control wells were generated either by dosing of 100% DMSO (max signal) or addition of a reference compound (a PI3K-62 inhibitor) that completely eliminated the pAKT signal (min control). Plates were incubated at 37° C. for 2 h; cells were then fixed by the addition of […] of a 3.7% formaldehyde solution. After 30 minutes the plates were washed with PBS using a Tecan PW384 plate washer. Wells were blocked and cells permeabilised with the addition of 40 μl of PBS containing 0.5% Tween20 and 1% Marvel™ (dried milk powder) and incubated for 60 minutes at r.t. The plates were washed with PBS containing 0.5% (v/v) Tween20 and 20 μl rabbit anti-phospho AKT Ser473 (Cell Signalling Technologies, #3787) in same PBS-Tween+1% MarvelTM was added and incubated overnight at 4° C.
Plates were washed 3 times with PBS+0.05% Tween 20 using a Tecan PW384. 20 μl of secondary antibody Alexa Fluor 488 anti-Rabbit (Molecular Probes, # A11008) diluted in PBS+0.05% Tween20 containing 1% Marvel™ was added to each well and incubated for 1 h at r.t. Plates were washed three times as before then 20 μl PBS added to each well and plates sealed with a black plate sealer.
The plates were read on an Acumen plate reader as soon as possible, measuring green fluorescence after excitation with 488 nm laser. Using this system IC50 values were generated and quality of plates was determined by control wells. Reference compounds were run each time to monitor assay performance.

The next experiment addresses PI3Kα (Homo sapiens, UniProt P42336). Nature of the experiment: PI3K cellular potency assay (phospho-Akt T308 in BT474 cells, ELISA). The class given is cell-based. The note with it: 2 h, phospho-Akt (T308); Table 2; read-out: Assay c) PI3Kα Cell IC50. Here is the method: The following assays were used to measure the effects of the compounds of the present invention: a) ATM cellular potency assay; b) PI3K cellular potency assay; c) mTOR cellular potency assay; d) ATR cellular potency assay. During the description of the assays, generally: • i. […] IC50 values were calculated using a smart fitting model in Genedata.
This assay was used to measure PI3K-α inhibition in cells. PDK1 was identified as the upstream activation loop kinase of protein kinase B (Akt1), which is essential for the activation of PKB. Activation of the lipid kinase phosphoinositide 3 kinase (PI3K) is critical for the activation of PKB by PDK1.
Following ligand stimulation of receptor tyrosine kinases, PI3K is activated, which converts PIP2 to PIP3, which is bound by the PH domain of PDK1 resulting in recruitment of PDK1 to the plasma membrane where it phosphorylates AKT at Thr308 in the activation loop.
The aim of this cell-based mode of action assay is to identify compounds that inhibit PDK activity or recruitment of PDK1 to membrane by inhibiting PI3K activity. Phosphorylation of phospho-Akt (T308) in BT474c cells following treatment with compounds for 2 h is a direct measure of PDK1 and indirect measure of PI3K activity.
The following morning compounds in 100% DMSO were added to assay plates by acoustic dispensing.
Plates were incubated over night at 4° C. The next day the plates were washed with PBS buffer containing 0.05% Tween 20 and further incubated with a mouse monoclonal anti-phospho AKT T308 for 2 h. Plates were washed again as above before addition of a horse anti-mouse-HRP conjugated secondary antibody. […] The developed fluorescent product was stopped after 60 minutes by addition of Stop solution to the wells.
In general terms: An ELISA detects its analyte on a solid surface through an enzyme-linked reagent.

Each structure is given as a SMILES string. Where only a bound is given, the exact number is not on record here.

PI3Kα, sequence (P42336 whole entry): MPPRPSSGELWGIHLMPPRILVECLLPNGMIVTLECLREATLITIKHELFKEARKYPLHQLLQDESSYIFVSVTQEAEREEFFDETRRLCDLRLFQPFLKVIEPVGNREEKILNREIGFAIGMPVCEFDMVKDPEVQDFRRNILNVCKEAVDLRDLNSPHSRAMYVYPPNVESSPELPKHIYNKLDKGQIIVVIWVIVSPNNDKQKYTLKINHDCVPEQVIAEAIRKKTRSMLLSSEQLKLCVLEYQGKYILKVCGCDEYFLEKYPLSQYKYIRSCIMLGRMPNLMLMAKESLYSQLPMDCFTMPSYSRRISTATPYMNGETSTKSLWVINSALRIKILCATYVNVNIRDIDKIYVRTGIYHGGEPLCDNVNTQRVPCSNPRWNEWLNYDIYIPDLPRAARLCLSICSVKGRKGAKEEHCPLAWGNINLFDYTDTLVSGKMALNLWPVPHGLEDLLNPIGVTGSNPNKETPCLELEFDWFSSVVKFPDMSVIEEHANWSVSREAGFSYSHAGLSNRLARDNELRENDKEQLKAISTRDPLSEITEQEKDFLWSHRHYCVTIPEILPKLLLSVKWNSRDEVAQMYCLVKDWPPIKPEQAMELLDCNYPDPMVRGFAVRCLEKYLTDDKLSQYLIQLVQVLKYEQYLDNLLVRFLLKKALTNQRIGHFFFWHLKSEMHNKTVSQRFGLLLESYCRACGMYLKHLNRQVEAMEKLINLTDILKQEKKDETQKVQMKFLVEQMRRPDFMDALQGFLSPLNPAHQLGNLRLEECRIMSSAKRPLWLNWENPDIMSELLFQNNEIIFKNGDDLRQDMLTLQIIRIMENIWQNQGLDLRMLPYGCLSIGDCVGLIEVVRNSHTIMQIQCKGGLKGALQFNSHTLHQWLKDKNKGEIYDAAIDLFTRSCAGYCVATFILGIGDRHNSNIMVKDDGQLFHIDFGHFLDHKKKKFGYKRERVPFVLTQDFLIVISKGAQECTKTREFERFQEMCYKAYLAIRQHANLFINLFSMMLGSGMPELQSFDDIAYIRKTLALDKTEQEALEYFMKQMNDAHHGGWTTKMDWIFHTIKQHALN
PI3Kα, sequence (P27986 2-724, further chain): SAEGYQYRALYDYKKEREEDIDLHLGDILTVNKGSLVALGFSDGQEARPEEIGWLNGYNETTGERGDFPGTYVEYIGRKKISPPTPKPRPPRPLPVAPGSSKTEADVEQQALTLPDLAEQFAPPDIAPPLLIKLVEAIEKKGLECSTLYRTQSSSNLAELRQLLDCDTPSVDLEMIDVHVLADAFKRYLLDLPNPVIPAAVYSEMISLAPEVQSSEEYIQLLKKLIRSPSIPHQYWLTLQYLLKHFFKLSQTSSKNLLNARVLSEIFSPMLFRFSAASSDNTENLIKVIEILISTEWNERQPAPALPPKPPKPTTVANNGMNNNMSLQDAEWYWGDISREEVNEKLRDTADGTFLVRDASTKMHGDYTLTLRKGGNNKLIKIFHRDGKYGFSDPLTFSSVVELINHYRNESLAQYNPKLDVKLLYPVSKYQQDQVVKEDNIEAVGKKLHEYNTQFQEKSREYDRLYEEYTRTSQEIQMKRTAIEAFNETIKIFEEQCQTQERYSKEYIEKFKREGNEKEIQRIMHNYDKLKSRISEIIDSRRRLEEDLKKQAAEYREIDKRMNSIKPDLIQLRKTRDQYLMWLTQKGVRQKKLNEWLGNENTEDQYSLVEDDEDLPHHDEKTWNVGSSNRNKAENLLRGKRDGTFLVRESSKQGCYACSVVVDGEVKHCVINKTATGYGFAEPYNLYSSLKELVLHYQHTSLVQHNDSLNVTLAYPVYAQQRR

Broadly, the IC50 is the midpoint of a concentration-inhibition curve. As to `CO[C@H]1CC[C@H](n2c(=O)n(C)c3cnc4ccc(-c5ccc(N6CCC(N(C)C)CC6)nc5)cc4c32)C1` (single isomer, unassigned) [Example 32, 8-[6-[4-(dimethylamino)-1-piperidyl]-3-pyridyl]-1-[trans-3-methoxycyclopentyl]-3-methyl-imidazo[4,5-c]quinolin-2-one], the IC50 at mTOR is 1500 nM; at PI3Kα, 663 nM.

As for `CN(C)[C@@H]1CCN(c2ccc(-c3ccc4ncc5c(c4c3)n([C@@H]3CCCOC3)c(=O)n5C)cn2)C1` [Example 7], the IC50 at mTOR was 616 nM; on PI3Kα it was 1220 nM.

`CN(C)[C@H]1CCN(c2ccc(-c3cc4c(cc3F)ncc3c4n([C@H]4CCCOC4)c(=O)n3C)cn2)C1` [Example 20]: the IC50 is more than 30000 nM on mTOR and more than 10000 nM on PI3Kα.

Regarding `CO[C@H]1C[C@@H](n2c(=O)n(C)c3cnc4cc(F)c(-c5ccc(N6CC(N(C)C)C6)nc5)cc4c32)C1` [Example 31, 8-[6-[3-(dimethylamino)azetidin-1-yl]-3-pyridyl]-7-fluoro-1-(cis-3-methoxycyclobutyl)-3-methyl-imidazo[4,5-c]quinolin-2-one], the IC50 at mTOR was 12800 nM; at PI3Kα, more than 30000 nM.

As to `CO[C@H]1C[C@@H](n2c(=O)n(C)c3cnc4ccc(-c5ccc(N6CCC(N(C)C)CC6)nc5)cc4c32)C1` [Example 36, 8-[6-[4-(dimethylamino)-1-piperidyl]-3-pyridyl]-1-(cis-3-methoxycyclobutyl)-3-methyl-imidazo[4,5-c]quinolin-2-one], the IC50 is 3900 nM at mTOR and 987 nM at PI3Kα.

As for `CO[C@H]1C[C@@H](n2c(=O)n(C)c3cnc4cc(F)c(-c5ccc(N6CCC(N(C)C)CC6)nc5)cc4c32)C1` [Example 42, 8-[6-[4-(dimethylamino)-1-piperidyl]-3-pyridyl]-7-fluoro-1-(cis-3-methoxycyclobutyl)-3-methyl-imidazo[4,5-c]quinolin-2-one], the IC50 was more than 15300 nM on mTOR and more than 30000 nM at PI3Kα.

As for `CNC1CCN(c2ccc(-c3cc4c(cc3F)ncc3c4n([C@H]4C[C@@H](OC)C4)c(=O)n3C)cn2)CC1` [Example 57, 7-Fluoro-1-(cis-3-methoxycyclobutyl)-3-methyl-8-[6-[4-(methylamino)-1-piperidyl]-3-pyridyl]imidazo[4,5-c]quinolin-2-one], the IC50 on mTOR was 7720 nM; on PI3Kα it was more than 30000 nM.

On to `CNC1CCN(c2ccc(-c3ccc4ncc5c(c4c3)n([C@H]3C[C@@H](OC)C3)c(=O)n5C)cn2)CC1` [Example 60, 1-(cis-3-methoxycyclobutyl)-3-methyl-8-[6-[4-(methylamino)-1-piperidyl]-3-pyridyl]imidazo[4,5-c]quinolin-2-one], for which the IC50 at mTOR came out at 989 nM; at PI3Kα, 292 nM.

For the origin of these results see patent US20180280377A1, “Imidazo[4,5-c]quinolin-2-one Compounds and Their Use in Treating Cancer” (ASTRAZENECA AB, priority 2015, published 2018).
